According to patent US8680281B2, “Lactam inhibitors of 11-β-hydroxysteroid dehydrogenase 1” (Vitae Pharmaceuticals, Inc., priority 2008, dated 2014):

Target: human 11β-HSD1 (Homo sapiens, UniProt P28845)
Experiment: Biological Test Example 1: inhibition of a microsomal preparation of 11β-HSD1 (SPA)
Format: biochemical
Conditions: microsomes from CHO cells overexpressing human 11β-HSD1; for inhibition at 0.1 µM: at 100 nM; for IC50: read-out: IC50 Range

Chain of human 11β-HSD1 (P28845 whole entry): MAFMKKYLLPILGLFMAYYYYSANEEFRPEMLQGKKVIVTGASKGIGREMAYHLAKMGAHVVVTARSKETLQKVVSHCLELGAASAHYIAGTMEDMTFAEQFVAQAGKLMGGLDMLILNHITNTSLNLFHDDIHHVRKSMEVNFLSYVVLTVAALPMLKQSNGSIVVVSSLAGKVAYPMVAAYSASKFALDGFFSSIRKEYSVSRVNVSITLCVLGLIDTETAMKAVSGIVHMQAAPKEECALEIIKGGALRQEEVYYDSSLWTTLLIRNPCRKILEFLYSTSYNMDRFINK

SMILES | inhibition at 0.1 µM | IC50
C[C@@H](c1ccc(Br)cc1)N1CC[C@@](CCO)(c2ccccc2)CC1=O (single isomer, unassigned) [EXAMPLE 2 Isomer 2] | 73.8% | < 100 nM
C[C@@H](c1ccc(Br)cc1)N1CC[C@](CC(C)(C)O)(c2ccccc2)CC1=O [EXAMPLE 7, (R)-1-((S)-1-(4-bromophenyl)ethyl)-4-(2-hydroxy-2-methylpropyl)-4-phenylpiperidin-2-one] | 98% | < 100 nM
C[C@@H](c1ccc(Br)cc1)N1CC[C@](CCO)(c2ccccc2)CC1=O (single isomer, unassigned) [EXAMPLE 2 Isomer 1] | 101% | < 100 nM
C[C@@H](c1ccc(-c2ccc(F)cc2)cc1)N1CC[C@@](CCO)(c2ccccc2)CC1=O (single isomer, unassigned) [EXAMPLE 3 Isomer 2] | 61.3% | < 100 nM
C[C@@H](c1ccc(Br)cc1)N1CC[C@](CC(C)(C)C(N)=O)(c2ccccc2)CC1=O [EXAMPLE 11, 3-((S)-1-((S)-1-(4-bromophenyl)ethyl)-2-oxo-4-phenylpiperidin-4-yl)-2,2-dimethylpropanamide] | 95.5% | < 100 nM
C[C@@H](c1ccc(-c2ccc(F)cc2)cc1)N1CC[C@](CCO)(c2ccccc2)CC1=O (single isomer, unassigned) [EXAMPLE 3 Isomer 1] | 97.9% | < 100 nM
C[C@@H](c1ccc(-c2ccc(=O)n(C)c2)cc1)N1CC[C@](CCCO)(c2ccc(F)cc2)CC1=O (single isomer, unassigned) [EXAMPLE 5 Isomer 1] | 94% | < 100 nM
C[C@@H](c1ccc(-c2ccc(=O)[nH]c2)cc1)N1CC[C@](CC(C)(C)O)(c2ccccc2)CC1=O [EXAMPLE 13, 5-(4-((S)-1-((R)-4-(2-hydroxy-2-methylpropyl)-2-oxo-4-phenylpiperidin-1-yl)ethyl)phenyl)pyridin-2(1H)-one] | 94.3% | < 100 nM
C[C@@H](c1ccc(-c2cc[nH]c(=O)c2)cc1)N1CC[C@](CC(C)(C)O)(c2ccccc2)CC1=O [EXAMPLE 12, 4-(4-((S)-1-((R)-4-(2-hydroxy-2-methylpropyl)-2-oxo-4-phenylpiperidin-1-yl)ethyl)phenyl)pyridin-2(1H)-one] | 95.9% | < 100 nM
C[C@@H](c1ccc(-c2ccn(C)c(=O)c2)cc1)N1CC[C@](CC(C)(C)O)(c2ccccc2)CC1=O [EXAMPLE 8, 4-(4-((S)-1-((R)-4-(2-hydroxy-2-methylpropyl)-2-oxo-4-phenylpiperidin-1-yl)ethyl)phenyl)-1-methylpyridin-2(1H)-one] | 93% | < 100 nM
C[C@@H](c1ccc(Br)cc1)N1CC[C@@](CCC(N)=O)(c2ccc(F)cc2)CC1=O (single isomer, unassigned) [EXAMPLE 4 Isomer 2] | 27.8% | > 100 nM
C[C@@H](c1ccc(Br)cc1)N1CC[C@](CCC(N)=O)(c2ccc(F)cc2)CC1=O (single isomer, unassigned) [EXAMPLE 4 Isomer 1] | 96.8% | < 100 nM
CC[C@@H](c1ccc(Br)cc1)N1CC[C@@](CC(C)(C)O)(c2ccccc2)CC1=O (single isomer, unassigned) [EXAMPLE 6 Isomer 2] | 82.6% | < 100 nM
C[C@@H](c1ccc(Br)cc1)N1CC[C@](CC(C)(C)C#N)(c2ccccc2)CC1=O [EXAMPLE 10, 3-((S)-1-((S)-1-(4-bromophenyl)ethyl)-2-oxo-4-phenylpiperidin-4-yl)-2,2-dimethylpropanenitrile] | 96% | < 100 nM
C[C@@H](c1ccc(-c2ccc(=O)n(C)c2)cc1)N1CC[C@@](CCCO)(c2ccc(F)cc2)CC1=O (single isomer, unassigned) [EXAMPLE 5 Isomer 2] | 10.7% | > 100 nM
C[C@@H](c1ccc(-c2ccc(=O)n(C)c2)cc1)N1CC[C@](CC(C)(C)O)(c2ccccc2)CC1=O [EXAMPLE 9, 5-(4-((S)-1-((R)-4-(2-hydroxy-2-methylpropyl)-2-oxo-4-phenylpiperidin-1-yl)ethyl)phenyl)-1-methylpyridin-2(1H)-one] | 92.7% | < 100 nM
CC[C@@H](c1ccc(Br)cc1)N1CC[C@](CC(C)(C)O)(c2ccccc2)CC1=O (single isomer, unassigned) [EXAMPLE 6 Isomer 1] | 98.3% | < 100 nM
